Assay [1] addresses T1, T790M/L858R transformed Ba/F3 cells (Homo sapiens, UniProt P00533, T790M/L858R, cells depend on it).
T1 construct: The constructs were shuttled into the retroviral vector JP 1540 using the BD Creator™ System (BD Biosciences)
Description: Ba/F3 cell proliferation (MTS) assay, T790M/L858R. The assay is classed as cell-based, murine. Conditions: for EC50: antiproliferative activity; for % control: compound at 1 μM, inhibition of growth as percent of control. The source says:
The EGFR mutant L858R, Del E746_A750, L858R/T790M, DelE746_A750/T790M, L858R/T790M/C797S and Del/T790M/C797S Ba/F3 cells have been previously described (Zhou, W., Ercan, D., Chen, L., Yun, C. H., Li, D., Capelletti, M., Cortot, A. B., Chirieac, L., Iacob, R. E., Padera, R., et al. “Novel mutant-selective EGFR kinase inhibitors against EGFR T790M,” Nature 462, (2009), 1070-1074). All cell lines were maintained in RPMI 1640 (Cellgro; Mediatech Inc., Herndon, Calif.) supplemented with 10% FBS 100 units/mL penicillin, 100 units/mL streptomycin, and 2 mM glutamine. L858R cells were maintained in ACL-4 media (Invitrogen, Carlsbad, Calif.) supplemented with 5% FBS, 100 units/mL penicillin, 100 units/mL streptomycin, and 2 mM glutamine. The EGFR I941R mutation was introduced via site directed mutagenesis using the Quick Change Site-Directed Mutagenesis kit (Stratagene; La Jolla, Calif.) according to the manufacturer's instructions. All constructs were confirmed by DNA sequencing. The constructs were shuttled into the retroviral vector JP 1540 using the BD Creator™ System (BD Biosciences). Ba/F3 cells were infected with retrovirus and according to standard protocols, as described previously (Zhou et al, Nature 2009). Stable clones were obtained by selection in puromycin (2 μg/ml).
Growth and inhibition of growth was assessed by MTS assay and was performed according to previously established methods (Zhou et al., Nature 2009). The MTS assay is a colorimetric method for determining the number of viable cells that is based on the bioreduction of MTS by cells to a formazan product that is soluble in cell culture medium and can be detected spectrophotometrically. Ba/F3 cells of different EGFR genotypes were exposed to treatment for 72 hours and the number of cells used per experiment determined empirically and has been previously established (Zhou et al., Nature 2009). All experimental points were set up in six wells and all experiments were repeated at least three times. […] The curves were fitted using a non-linear regression model with a sigmoidal dose response.
Compounds of Table 1 were tested at a concentration of 1 μM against T790M/L858R transformed Ba/F3 cells. The assay, as described in Example 42, measured inhibition of growth as a percent of the inhibitory activity of the control. In Table 1, A is 0<% control <25, B is 25<% control <50, C is 50<% control <75, and D is 75<% control.
Compounds of Table 2 were tested in a T790M/L858R transformed Ba/F3 cell line as described in Example 42 and the EC50 values were calculated. In Table 2, A is EC50<500 nM, B is 500 nM<EC50<1000 nM, C is 1000 nM<EC50<5000 nM, and D is 5000 nM<EC50.

In assay [2] the target is T2, T790M/L858R/C797S transformed Ba/F3 cells (Homo sapiens, UniProt P00533, T790M/C797S/L858R, cells depend on it).
T2 construct: The constructs were shuttled into the retroviral vector JP 1540 using the BD Creator™ System (BD Biosciences)
T2 sequence (P00533 whole entry T790M/C797S/L858R): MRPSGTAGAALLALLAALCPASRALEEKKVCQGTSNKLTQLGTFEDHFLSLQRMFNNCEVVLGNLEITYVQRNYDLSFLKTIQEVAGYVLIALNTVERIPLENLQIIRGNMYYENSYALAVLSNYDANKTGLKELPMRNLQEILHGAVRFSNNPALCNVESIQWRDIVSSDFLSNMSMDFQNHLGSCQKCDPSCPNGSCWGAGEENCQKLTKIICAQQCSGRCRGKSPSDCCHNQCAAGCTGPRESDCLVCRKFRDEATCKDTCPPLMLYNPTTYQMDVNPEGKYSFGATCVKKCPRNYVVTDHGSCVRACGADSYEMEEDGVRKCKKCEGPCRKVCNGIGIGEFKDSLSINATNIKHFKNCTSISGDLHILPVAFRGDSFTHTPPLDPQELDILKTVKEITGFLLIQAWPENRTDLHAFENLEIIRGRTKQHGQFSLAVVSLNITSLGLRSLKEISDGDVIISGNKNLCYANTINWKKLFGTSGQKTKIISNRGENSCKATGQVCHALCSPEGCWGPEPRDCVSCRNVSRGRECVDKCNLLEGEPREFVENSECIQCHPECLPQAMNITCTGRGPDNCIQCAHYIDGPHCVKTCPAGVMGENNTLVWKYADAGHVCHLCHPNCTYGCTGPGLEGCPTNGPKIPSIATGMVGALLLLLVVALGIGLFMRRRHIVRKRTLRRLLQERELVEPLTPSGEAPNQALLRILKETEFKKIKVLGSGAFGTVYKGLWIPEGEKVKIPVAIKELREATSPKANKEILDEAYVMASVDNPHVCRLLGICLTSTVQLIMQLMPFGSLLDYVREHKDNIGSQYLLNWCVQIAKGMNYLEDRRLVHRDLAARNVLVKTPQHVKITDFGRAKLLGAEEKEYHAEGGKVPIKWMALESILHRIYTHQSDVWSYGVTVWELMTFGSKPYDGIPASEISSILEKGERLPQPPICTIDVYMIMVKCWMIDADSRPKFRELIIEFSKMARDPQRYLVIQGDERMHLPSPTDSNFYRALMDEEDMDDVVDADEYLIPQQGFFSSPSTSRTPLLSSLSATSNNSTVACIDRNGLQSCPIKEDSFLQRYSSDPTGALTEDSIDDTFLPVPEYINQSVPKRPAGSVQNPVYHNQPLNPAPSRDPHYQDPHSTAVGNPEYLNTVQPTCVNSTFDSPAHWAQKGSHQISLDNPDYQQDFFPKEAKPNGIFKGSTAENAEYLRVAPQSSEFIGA
Description: Ba/F3 cell proliferation (MTS) assay, T790M/L858R/C797S. The class given is cell-based, murine. The note with it: antiproliferative activity.

Each structure is given as a SMILES string.

T1 sequence (P00533 whole entry T790M/L858R): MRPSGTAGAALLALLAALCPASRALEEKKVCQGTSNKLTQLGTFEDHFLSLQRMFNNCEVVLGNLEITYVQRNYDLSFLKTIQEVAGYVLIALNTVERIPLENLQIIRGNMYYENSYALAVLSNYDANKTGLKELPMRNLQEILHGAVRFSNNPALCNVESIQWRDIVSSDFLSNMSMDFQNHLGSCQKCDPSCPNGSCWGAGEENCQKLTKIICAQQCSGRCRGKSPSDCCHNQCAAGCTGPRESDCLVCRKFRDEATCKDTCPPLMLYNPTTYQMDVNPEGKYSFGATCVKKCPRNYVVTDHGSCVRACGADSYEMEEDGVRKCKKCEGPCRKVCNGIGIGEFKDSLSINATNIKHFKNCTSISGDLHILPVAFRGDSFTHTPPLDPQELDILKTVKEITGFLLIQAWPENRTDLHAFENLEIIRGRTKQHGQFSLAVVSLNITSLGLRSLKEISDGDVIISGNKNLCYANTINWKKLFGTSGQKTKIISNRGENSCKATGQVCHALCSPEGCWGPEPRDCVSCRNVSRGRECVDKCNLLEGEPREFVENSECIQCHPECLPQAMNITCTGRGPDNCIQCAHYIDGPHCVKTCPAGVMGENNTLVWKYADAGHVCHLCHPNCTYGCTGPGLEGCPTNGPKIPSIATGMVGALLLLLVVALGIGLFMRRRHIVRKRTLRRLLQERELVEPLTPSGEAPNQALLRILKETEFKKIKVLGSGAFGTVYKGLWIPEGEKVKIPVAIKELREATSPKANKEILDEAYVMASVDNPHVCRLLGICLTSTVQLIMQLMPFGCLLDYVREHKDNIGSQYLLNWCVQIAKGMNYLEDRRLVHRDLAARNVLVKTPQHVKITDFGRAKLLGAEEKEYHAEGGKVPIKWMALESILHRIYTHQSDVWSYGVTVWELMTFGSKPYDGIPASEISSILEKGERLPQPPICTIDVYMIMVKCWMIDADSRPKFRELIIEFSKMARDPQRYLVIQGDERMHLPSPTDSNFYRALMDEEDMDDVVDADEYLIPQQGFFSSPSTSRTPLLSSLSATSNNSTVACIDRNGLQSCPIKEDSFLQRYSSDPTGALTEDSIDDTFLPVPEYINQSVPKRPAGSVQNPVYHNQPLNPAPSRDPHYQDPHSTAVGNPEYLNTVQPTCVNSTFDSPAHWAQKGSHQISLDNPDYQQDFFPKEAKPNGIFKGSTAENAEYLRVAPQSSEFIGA

On to `O=C1CCC(N2C(=O)c3cccc(NCCOCCOCCOCCN4CCN(c5ccc(-c6ccc7c(c6)C(=O)N(C(C(=O)Nc6nccs6)c6ccccc6O)C7)cn5)CC4)c3C2=O)C(=O)N1` (centres unmarked) [Compound I-14, 2-(6-(6-(4-(2-(2-(2-(2-((2-(2,6-Dioxopiperidin-3-yl)-1,3-dioxoisoindolin-4-yl)amino)ethoxy)ethoxy)ethoxy)ethyl)piperazin-1-yl)pyridin-3-yl)-1-oxoisoindolin-2-yl)-2-(2-hydroxyphenyl)-N-(thiazol-2-yl)acetamide], for which, in assay [1], the EC50 fell in the range of 1 to 5 µM and the “% control” value is “D (D is 75<% control)”. The compound also yielded an EC50 in assay [2] of more than 5 µM.

Turning to `O=C1CCC(N2C(=O)c3cccc(NC4CN(CCOCCOCCN5CCN(c6ccc(-c7ccc8c(c7)C(=O)N(C(C(=O)Nc7nccs7)c7ccccc7)C8)cc6)CC5)C4)c3C2=O)C(=O)N1` (centres unmarked) [Compound I-15, 2-(6-(4-(4-(2-(2-(2-(3-((2-(2,6-Dioxopiperidin-3-yl)-1,3-dioxoisoindolin-4-yl)amino)azetidin-1-yl)ethoxy)ethoxy)ethyl)piperazin-1-yl)phenyl)-1-oxoisoindolin-2-yl)-2-phenyl-N-(thiazol-2-yl)acetamide], in assay [1], the EC50 lay within 1 to 5 µM and the “% control” value was “C (C is 50<% control <75)”. In assay [2], this compound yielded an EC50 of more than 5 µM.

As for `O=C1CCC(N2C(=O)c3cccc(NC4CN(CCOCCOCCOCCN5CCN(c6ccc(-c7ccc8c(c7)C(=O)N(C(C(=O)Nc7nccs7)c7ccccc7)C8)cc6)CC5)C4)c3C2=O)C(=O)N1` (centres unmarked) [Compound I-16, 2-(6-(4-(4-(2-(2-(2-(2-(3-((2-(2,6-Dioxopiperidin-3-yl)-1,3-dioxoisoindolin-4-yl)amino)azetidin-1-yl)ethoxy)ethoxy)ethoxy)ethyl)piperazin-1-yl)phenyl)-1-oxoisoindolin-2-yl)-2-phenyl-N-(thiazol-2-yl)acetamide], in assay [1], the EC50 fell in the range of 1 to 5 µM and the “% control” value was “C (C is 50<% control <75)”. Moreover, in assay [2], the EC50 is more than 5 µM.

As to `O=C1CCC(N2C(=O)c3cccc(NCCOCCOCCOCCN4CCN(c5ccc(-c6ccc7c(c6)C(=O)N(C(C(=O)Nc6nccs6)c6ccccc6)C7)cc5)CC4)c3C2=O)C(=O)N1` (centres unmarked) [Compound I-18, 2-(6-(4-(4-(2-(2-(2-(2-((2-(2,6-Dioxopiperidin-3-yl)-1,3-dioxoisoindolin-4-yl)amino)ethoxy)ethoxy)ethoxy)ethyl)piperazin-1-yl)phenyl)-1-oxoisoindolin-2-yl)-2-phenyl-N-(thiazol-2-yl)acetamide], in assay [1], the EC50 was less than 0.5 µM and the “% control” value is given as “A (A is 0<% control <25)”. In addition, the EC50 in assay [2] was less than 0.5 µM.

`O=C1CCC(N2C(=O)c3cccc(NCCOCCOCCOCCOCCN4CCN(c5ccc(-c6ccc7c(c6)C(=O)N(C(C(=O)Nc6nccs6)c6ccccc6)C7)cc5)CC4)c3C2=O)C(=O)N1` (centres unmarked) [Compound I-20, 2-(6-(4-(4-(14-((2-(2,6-Dioxopiperidin-3-yl)-1,3-dioxoisoindolin-4-yl)amino)-3,6,9,12-tetraoxatetradecyl)piperazin-1-yl)phenyl)-1-oxoisoindolin-2-yl)-2-phenyl-N-(thiazol-2-yl)acetamide]: the EC50 in assay [1] and in assay [2] was less than 0.5 µM throughout. The “% control” value in assay [1] was “A (A is 0<% control <25)”.

In the case of `O=C1CCC(N2C(=O)c3cccc(NCCOCCOCCOCCN4CCN(c5ccc(-c6ccc7c(c6)C(=O)N(C(C(=O)Nc6nccs6)c6ccccc6)C7)cn5)CC4)c3C2=O)C(=O)N1` (centres unmarked) [Compound I-22, 2-(6-(6-(4-(2-(2-(2-(2-((2-(2,6-Dioxopiperidin-3-yl)-1,3-dioxoisoindolin-4-yl)amino)ethoxy)ethoxy)ethoxy)ethyl)piperazin-1-yl)pyridin-3-yl)-1-oxoisoindolin-2-yl)-2-phenyl-N-(thiazol-2-yl)acetamide], the EC50 was less than 0.5 µM in assay [1] and 0.5 to 1 µM in assay [2]. Also, the “% control” value in assay [1] was “A (A is 0<% control <25)”.

As for `Cc1ncsc1-c1ccc([C@H](C)NC(=O)[C@@H]2C[C@@H](O)CN2C(=O)[C@@H](NC(=O)CCOCCOCCOCCN2CCN(c3ccc(-c4ccc5c(c4)C(=O)N(C(C(=O)Nc4nccs4)c4ccccc4)C5)cn3)CC2)C(C)(C)C)cc1` (stereo partly drawn) [Compound I-23, (2S,4R)-1-((14S)-14-(tert-Butyl)-12-oxo-1-(4-(5-(3-oxo-2-(2-oxo-1-phenyl-2-(thiazol-2-ylamino)ethyl)isoindolin-5-yl)pyridin-2-yl)piperazin-1-yl)-3,6,9-trioxa-13-azapentadecan-15-oyl)-4-hydroxy-N—((S)-1-(4-(4-methylthiazol-5-yl)phenyl)ethyl)pyrrolidine-2-carboxamide], in assay [1], the EC50 is more than 5 µM and the “% control” value is reported as “D (D is 75<% control)”. Further, the EC50 in assay [2] is more than 5 µM.

Take `Cc1ncsc1-c1ccc([C@H](C)NC(=O)[C@@H]2C[C@@H](O)CN2C(=O)[C@@H](NC(=O)CCOCCOCCN2CCN(c3ccc(-c4ccc5c(c4)C(=O)N(C(C(=O)Nc4nccs4)c4ccccc4)C5)cn3)CC2)C(C)(C)C)cc1` (stereo partly drawn) [Compound I-24, (2S,4R)-1-((2S)-3,3-Dimethyl-2-(3-(2-(2-(4-(5-(3-oxo-2-(2-oxo-1-phenyl-2-(thiazol-2-ylamino)ethyl)isoindolin-5-yl)pyridin-2-yl)piperazin-1-yl)ethoxy)ethoxy)propanamido)butanoyl)-4-hydroxy-N—((S)-1-(4-(4-methylthiazol-5-yl)phenyl)ethyl)pyrrolidine-2-carboxamide]: the EC50 in assay [1] and in assay [2] was more than 5 µM throughout.

As for `O=C1CCC(N2C(=O)c3cccc(NCCOCCOCCC(=O)N4CCN(c5ccc(-c6ccc7c(c6)C(=O)N(C(C(=O)Nc6nccs6)c6cc(F)ccc6O)C7)cc5)CC4)c3C2=O)C(=O)N1` (centres unmarked) [Compound I-28, 2-(6-(4-(4-(3-(2-(2-((2-(2,6-dioxopiperidin-3-yl)-1,3-dioxoisoindolin-4-yl)amino)ethoxy)ethoxy)propanoyl)piperazin-1-yl)phenyl)-1-oxoisoindolin-2-yl)-2-(5-fluoro-2-hydroxyphenyl)-N-(thiazol-2-yl)acetamide], in assay [1], the EC50 lay within 0.5 to 1 µM and the “% control” value is on record as “A (A is 0<% control <25)”. The EC50 in assay [2] was more than 5 µM.

As for `O=C1CCC(N2C(=O)c3cccc(NCCOCCC(=O)N4CCN(c5ccc(-c6ccc7c(c6)C(=O)N(C(C(=O)Nc6nccs6)c6cc(F)ccc6O)C7)cc5)CC4)c3C2=O)C(=O)N1` (centres unmarked) [Compound I-29, 2-(6-(4-(4-(3-(2-((2-(2,6-dioxopiperidin-3-yl)-1,3-dioxoisoindolin-4-yl)amino)ethoxy)propanoyl)piperazin-1-yl)phenyl)-1-oxoisoindolin-2-yl)-2-(5-fluoro-2-hydroxyphenyl)-N-(thiazol-2-yl)acetamide], the EC50 in assay [1] is 0.5 to 1 µM; in assay [2] it was more than 5 µM. Moreover, in assay [1], the “% control” value was “A (A is 0<% control <25)”.

Take `O=C1CCC(N2C(=O)c3cccc(NCCOCCOCCN4CCN(c5ccc(-c6ccc7c(c6)C(=O)N(C(C(=O)Nc6nccs6)c6cc(F)ccc6O)C7)cc5)CC4)c3C2=O)C(=O)N1` (centres unmarked) [Compound I-33]: in assay [1], the EC50 was less than 0.5 µM and the “% control” value was “A (A is 0<% control <25)”. Also, in assay [2], the EC50 was in the range of 1 to 5 µM.

The term EC50 denotes the concentration giving half of the maximal effect.
